Measurements: patent US4542123A (Massachusetts Institute of Technology, priority 1982, dated 1985)

What was measured:
[1] = Brain and plasma tyrosine ratios in fasted rats, tyrosine and glucose given concurrently (Example II, second set); conditions: rat, brain, po, 100 mg/kg
[2] = Brain and serum tyrosine in fasted rats given tyrosine alone or tyrosine and glucose (Example III, Table 2); format: in vivo, Sprague-Dawley rats; conditions: tyrosine 100 mg/kg alone; 90 min
[3] = in vivo; conditions: rat, po, 100 mg/kg

## N[C@@H](Cc1ccc(O)cc1)C(=O)O [Tyrosine, tyrosine]
[1]
  Kp at […]: 0.77
[2]
  Brain Tyrosine: 23.0 ± 2.2 µg/mL
  Brain/Serum (tyrosine): 1.02 ± 0.1
  Serum Tyrosine/Serum LNAA: .304
[3]; brain
  Kp at 1 h: 0.78
[3]; serum
  concentration at 1 h: 20900 ng/mL
